Experimental findings from ChEMBL document CHEMBL4219122, “Synthesis and biological evaluation of histone deacetylase and DNA topoisomerase II-Targeted inhibitors” (Bioorg Med Chem, 2018) are described below.

Calls of active or inactive are those of the source. The calls are words filed in the database; no cut-off is given here.

One assay relates to KM12. Kind of assay: Growth inhibition of human KM12 cells after 48 hrs by sulforhodamine B-based colorimetric assay. Type of assay: functional. To be noted: KM12, 48 h.
Another assay has as its system A549. Kind of assay: Growth inhibition of human A549 cells after 48 hrs by sulforhodamine B-based colorimetric assay. Type of assay: functional. The conditions noted are these: A549, 48 h.
In another assay the test system is OVCAR-3. Put plainly: Growth inhibition of human OVCAR3 cells after 48 hrs by sulforhodamine B-based colorimetric assay. Type of assay: functional. The conditions noted are these: OVCAR-3, 48 h.
For a further assay, the system named is MKN-7. Put plainly: Growth inhibition of human MKN7 cells after 48 hrs by sulforhodamine B-based colorimetric assay. To be noted: MKN-7, 48 h. Type of assay: functional.
Another assay deals with SNB-78. Put plainly: Growth inhibition of human SNB78 cells after 48 hrs by sulforhodamine B-based colorimetric assay. To be noted: SNB-78, 48 h. Type of assay: functional.
The target in assay [1] is T1, DNA topoisomerase 2-alpha (Homo sapiens, UniProt P11388). Put plainly: Inhibition of human topoisomerase-2 alpha-mediated kinetoplast DNA decatenation at 200 uM after 30 mins by ethidium bromide staining based agarose gel electrophoresis.
A further assay has as its system SF-268. Kind of assay: Growth inhibition of human SF268 cells after 48 hrs by sulforhodamine B-based colorimetric assay. Type of assay: functional. To be noted: SF-268, 48 h.
Another assay deals with NCI-H23. Kind of assay: Growth inhibition of human NCI-H23 cells after 48 hrs by sulforhodamine B-based colorimetric assay. Type of assay: functional. The conditions noted are these: NCI-H23, 48 h.
The target in assay [2] is T1, DNA topoisomerase 2-alpha. Put plainly: Inhibition of human topoisomerase-2 alpha-mediated kinetoplast DNA decatenation at 100 to 400 uM after 30 mins by ethidium bromide staining based agarose gel electrophoresis.
For the next assay, the system named is LOX IMVI. Put plainly: Growth inhibition of human LOXIMVI cells after 48 hrs by sulforhodamine B-based colorimetric assay. Type of assay: functional.
A further assay deals with ACHN. Put plainly: Growth inhibition of human ACHN cells after 48 hrs by sulforhodamine B-based colorimetric assay. Type of assay: functional.
Another assay concerns DU-145. Kind of assay: Growth inhibition of human DU145 cells after 48 hrs by sulforhodamine B-based colorimetric assay. Type of assay: functional, cell-based. To be noted: DU-145, 48 h.
A further assay concerns SF-295. Put plainly: Growth inhibition of human SF295 cells after 48 hrs by sulforhodamine B-based colorimetric assay. Type of assay: functional. The conditions noted are these: SF-295, 48 h.
The nature of assay [3]: Growth inhibition of human HBC4 cells after 48 hrs by sulforhodamine B-based colorimetric assay. Type of assay: functional. To be noted: HBC4, 48 h.
The next assay deals with HCT-15. Put plainly: Growth inhibition of human HCT15 cells after 48 hrs by sulforhodamine B-based colorimetric assay. Type of assay: functional. To be noted: HCT-15, 48 h.
Assay [4] is described as follows: Selectivity index, ratio of IC50 for human placenta topoisomerase 2alpha to IC50 for mouse HDAC6 expressed in HEK293T cells co-expressing mouse HDA2. Type of assay: cell-based.

T1 sequence (P11388 whole entry): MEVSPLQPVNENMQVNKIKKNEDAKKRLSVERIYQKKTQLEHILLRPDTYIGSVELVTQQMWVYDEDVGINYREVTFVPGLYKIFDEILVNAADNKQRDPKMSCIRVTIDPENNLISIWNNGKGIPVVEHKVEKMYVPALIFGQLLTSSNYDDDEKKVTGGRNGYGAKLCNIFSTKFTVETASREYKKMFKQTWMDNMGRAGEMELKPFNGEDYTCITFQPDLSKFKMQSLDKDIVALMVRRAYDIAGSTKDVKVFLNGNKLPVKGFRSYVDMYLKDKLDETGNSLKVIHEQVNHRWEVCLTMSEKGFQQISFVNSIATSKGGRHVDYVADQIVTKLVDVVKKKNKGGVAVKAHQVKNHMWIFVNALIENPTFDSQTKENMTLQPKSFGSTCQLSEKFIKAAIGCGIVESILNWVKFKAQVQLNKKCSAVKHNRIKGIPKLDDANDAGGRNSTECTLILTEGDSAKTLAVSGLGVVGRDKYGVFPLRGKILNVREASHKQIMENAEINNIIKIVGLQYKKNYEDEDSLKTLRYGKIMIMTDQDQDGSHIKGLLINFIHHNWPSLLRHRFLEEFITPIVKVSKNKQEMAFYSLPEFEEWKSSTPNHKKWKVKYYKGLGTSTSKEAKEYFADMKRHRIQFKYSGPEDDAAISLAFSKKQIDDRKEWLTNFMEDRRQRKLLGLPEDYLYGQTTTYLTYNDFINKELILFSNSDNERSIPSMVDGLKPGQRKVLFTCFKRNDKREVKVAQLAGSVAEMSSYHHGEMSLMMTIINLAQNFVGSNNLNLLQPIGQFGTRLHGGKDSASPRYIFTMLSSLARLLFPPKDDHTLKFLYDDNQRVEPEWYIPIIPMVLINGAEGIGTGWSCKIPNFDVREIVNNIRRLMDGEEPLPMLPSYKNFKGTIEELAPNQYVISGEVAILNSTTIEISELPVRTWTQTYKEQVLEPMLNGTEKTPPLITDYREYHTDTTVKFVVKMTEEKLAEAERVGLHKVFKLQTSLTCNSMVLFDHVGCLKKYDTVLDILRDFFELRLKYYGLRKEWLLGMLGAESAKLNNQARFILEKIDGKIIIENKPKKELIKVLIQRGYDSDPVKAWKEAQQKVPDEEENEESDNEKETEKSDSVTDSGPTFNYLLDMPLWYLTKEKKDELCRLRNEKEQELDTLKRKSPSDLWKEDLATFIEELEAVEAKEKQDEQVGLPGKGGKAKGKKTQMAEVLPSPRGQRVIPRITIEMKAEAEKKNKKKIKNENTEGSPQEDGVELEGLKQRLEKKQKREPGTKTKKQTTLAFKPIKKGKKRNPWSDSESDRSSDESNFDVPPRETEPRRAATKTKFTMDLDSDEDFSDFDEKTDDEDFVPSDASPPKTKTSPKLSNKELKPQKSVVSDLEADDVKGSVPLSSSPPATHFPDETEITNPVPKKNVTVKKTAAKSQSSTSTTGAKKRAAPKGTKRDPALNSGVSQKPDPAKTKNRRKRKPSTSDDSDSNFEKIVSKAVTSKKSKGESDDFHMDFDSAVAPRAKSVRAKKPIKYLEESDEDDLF

For `Cc1cn([C@H]2C[C@H](C3(c4ccc(NC(=O)CCCCCCC(=O)NO)cc4)SCCCS3)[C@@H](CO[Si](C)(C)C(C)(C)C)O2)c(=O)[nH]c1=O`, the GI50 is 4.57 µM with KM12; 5.01 µM in the assay with A549; 2950 nM in the assay on OVCAR-3; 2.95 µM with MKN-7; 6.76 µM in the assay with SNB-78; 4.37 µM in the assay on SF-268. For the same molecule, the GI50 in the assay with NCI-H23 was 4.68 µM; in the assay on LOX IMVI, 1780 nM; in the assay on ACHN, 4.37 µM; with DU-145 (read-out: GI50), 3.98 µM; in the assay with DU-145 (read-out: pGI50 (converted)), 3.98 µM; in the assay with SF-295, 4.9 µM. Moreover, the GI50 is 3.89 µM in assay [3] and 3.55 µM in the assay on HCT-15. Further, the inhibition entry in [1] and in [2] was “Active” each time.

As to `Cc1cn([C@@H]2C[C@H](C3(c4ccc(NC(=O)CCCCCCC(=O)NO)cc4)SCCCS3)[C@@H](CO[Si](C)(C)C(C)(C)C)O2)c(=O)[nH]c1=O`, the GI50 was 6.76 µM with KM12; 8.51 µM in the assay on A549; 3020 nM with OVCAR-3; 3.47 µM with MKN-7; 10 µM in the assay on SNB-78; 6.03 µM with SF-268. In addition, the GI50 in the assay on NCI-H23 is 7.94 µM; with LOX IMVI it was 2140 nM; in the assay with ACHN, 9.33 µM; in the assay on DU-145 (read-out: GI50), 3.98 µM; in the assay on DU-145 (read-out: pGI50 (converted)) it was 3.98 µM; with SF-295, 6.92 µM. Besides, the results for the GI50 (in assay [3]; in the assay on HCT-15) were 4.17 µM and 15.5 µM, respectively. In addition, the Ratio IC50 in [4] amounted to 20. Moreover, the inhibition result in [1] and in [2] was “Active” throughout.
